# Experimental data taken from patent publication US10010560B2, “Small molecule HSP70 inhibitors” (THE TRUSTEES OF THE UNIVERSITY OF PENNSYLVANIA, priority 2014, dated 2018).
# What was measured:
# ubiquitin = assay: Western blot for ubiquitin in detergent fractions; format: cell-based, human; conditions: 451 Lu cells, 24 h, detergent insoluble fraction
# From the text: (§1) FIGS. 4A-4L illustrate that PET-16 impairs proteostasis. […] There is a general absence of obvious nuclei in PET-16 treated tumor cells. […] FIGS. 4D and 4E are gels of whole-cell extracts (WCE) prepared from human melanoma A875 (D) or 451 Lu (E) cells treated with DMSO, PES or PET-16 that were immunoprecipitated using an anti-HSP70 antibody. The excised band of about 70 kDa shown in the Coomassie gel is HSP70, as confirmed by liquid chromatography—tandem mass spectrometry analysis. FIGS. 4F-4I are western blots of cell lines were treated with DMSO, PES or PET-16 for 24 h and immunoblotted for the indicated proteins. FIG. 4J are western blots of indicated melanomas pretreated with DMSO, PES or PET-16, followed by treatment with IL-6. Cell extracts were immunoblotted for the proteins indicated. Inhibition of IL-6 induced STAT3 and STAT1 phosphorylation by PET-16. FIG. 4K is a western blot analysis indicating altered processing of cathepsin L from the larger precursor form to the smaller mature form in the indicated cells following PET-16 treatment for 24 h. FIG. 4L is a western blot of the human melanoma 451 Lu cells treated with DMSO, PES or PET-16 for 24 h. Cells were harvested in 1% NP40-containing lysis buffer, fractionated into detergent-soluble and detergent-insoluble preparations, and assayed by western blot for ubiquitin. […]
# [1] = test system: human melanoma cell lines; assay: MTT assays of human melanoma cell lines; format: cell-based; conditions: several melanoma cell lines, 72 h
# Protocol: (§2) FIGS. 2A-2D illustrate the cytotoxicity of PET-16 to human tumor cells and its inhibition on E. coli growth. FIG. 2A is a line graph with data obtained from MTT assays of human melanoma cell lines treated with the indicated concentrations of PES or PET-16 for 72 h. The corresponding cell survival is normalized to vehicle (DMSO) treatment. Average and standard deviation (s.d.) from three independent experiments are shown. FIG. 2B are bar graphs of human melanoma (A875) cells and nontransformed human (IMR90) fibroblasts that were treated with DMSO, 10 μM PES or 10 μM PET-16 for 24 h. […] FIG. 2C is a line graph illustrating the growth of E. coli DH5α treated with different concentrations of PES or PET-16 for 6 h at 43° C. Error bars represent the s.d. of four independent experiments. FIG. 2D is a bar graph illustrating the growth of E. coli DH5α treated with DMSO, 30 μM PET-16 or 30 μM TPP for 6 h at 43° C. Error bars represent the s.d. of four independent experiments.
# MTT assays of human melanoma cell lines, as indicated, treated with the indicated concentration of PET-16 for 72 hours. The corresponding cell survival is normalized to vehicle (DMSO) treatment. Average and standard deviation (s.d.) from three independent experiments are shown.
# HSP70 = HSP70 (Homo sapiens, UniProt P0DMV8); assay: B-PES pull-down assay in cultured tumor cells; format: cell-based; design: endogenous in cells; conditions: H1299 cells pretreated with excess (8×) compound for 1 h, then 20 μM B-PES
# Chain of HSP70 (P0DMV8 whole entry, the tested form may be a part): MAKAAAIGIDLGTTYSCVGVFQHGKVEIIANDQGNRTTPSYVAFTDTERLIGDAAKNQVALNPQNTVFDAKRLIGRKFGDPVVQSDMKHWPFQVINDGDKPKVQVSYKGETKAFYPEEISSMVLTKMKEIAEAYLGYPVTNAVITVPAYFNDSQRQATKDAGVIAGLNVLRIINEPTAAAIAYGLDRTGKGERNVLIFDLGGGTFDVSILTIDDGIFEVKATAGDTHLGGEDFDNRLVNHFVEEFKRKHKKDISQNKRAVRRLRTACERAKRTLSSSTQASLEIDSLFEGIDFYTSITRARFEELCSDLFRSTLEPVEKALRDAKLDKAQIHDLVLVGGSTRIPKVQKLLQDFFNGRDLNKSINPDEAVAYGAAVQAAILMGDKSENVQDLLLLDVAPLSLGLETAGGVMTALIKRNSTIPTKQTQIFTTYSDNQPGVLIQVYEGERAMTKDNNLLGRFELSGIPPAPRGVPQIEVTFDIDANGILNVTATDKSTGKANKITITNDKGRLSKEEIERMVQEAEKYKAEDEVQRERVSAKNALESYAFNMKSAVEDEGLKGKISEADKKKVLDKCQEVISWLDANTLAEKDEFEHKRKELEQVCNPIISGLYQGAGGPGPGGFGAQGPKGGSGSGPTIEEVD
# From the text: FIGS. 3A-3L illustrate that PET-16 binds directly to ADP-bound HSP70 and DnaK. Specifically, FIGS. 3A-3H are isothermal calorimetric titration (ITC) assays of the indicated compounds (NRLLLTG—SEQ ID NO: 7, PES or PET-16) with purified HSP70-ADP, DnaK-ADP or HSP70-ATP proteins. The data are representative of three independent experiments. FIGS. 3I and 3J are ITC assays for the interaction between HSP70 (aa 386-616 of SEQ ID NO: 2) protein and PET-16 (I) or TPP (J). Binding constants (Kd values) are shown (average and s.d. from three independent experiments). PET-16 also binds directly to the purified, full-length, nucleotide-free HSP70 protein, with a reported dissociation constant of 5.2+/−0.1 micromolar, which is the average and standard deviation from two independent experiments (data not shown). FIG. 3K is ITC assay of HSP70 protein preincubated with ADP and PES for 1 h. The mixture was titrated into the sample cell containing PET-16. The data are representative of three independent ITC experiments. FIG. 3L are western blots of human lung carcinoma (H1299) cells that were pretreated with DMSO or excess (8×) PET-16 for 1 h prior to the addition of 20 μM B-PES for 5 h and examined for the expression of HSP70 or BCL-xL. B-PES-containing complexes were captured by Avidin resins and immunoblotted either with anti-HSP70 or anti-BCL-xL antibody. […]
# STAT3 and STAT1 = assay: IL-6 induced STAT3 and STAT1 phosphorylation in melanoma cell lines; format: cell-based; conditions: cells pre-treated with compound
# From the text: as §1
# [2] = test system: melanoma tumor cell line WM989; assay: Combination with BRAF inhibitor Vemurafenib, viability; format: cell-based, human
# From the text: FIG. 6 is a line graph illustrating that PET-16 synergizes with the BRAF inhibitor Vemurafenib to reduce the viability of the melanoma tumor cell line WM989 (▪). WM989 cells treated singularly with Vemurafenib are depicted by (●). No synergy was detected between Vemurafenib and PES-Cl.
# LC3 = assay: Western blot for autophagy marker LC3; format: cell-based, human; conditions: A875 melanoma cell line
# From the text: as §1
# tumor cells = assay: Electron microscopy analysis of treated tumor cells; format: cell-based
# From the text: as §1
# [3] = test system: human melanoma (A875) cells; assay: Viability of A875 melanoma cells versus IMR90 fibroblasts; format: cell-based; conditions: 10 μM, 24 h, A875 vs IMR90
# Protocol: as §2
compound,measurement,setting,value
"C(#C[P+](c1ccccc1)(c1ccccc1)c1ccccc1)c1ccccc1.[Br-] [PET-16, triphenyl(phenylethynyl)phosphonium bromide]",ubiquitinated polypeptides,ubiquitin,accumulation
same,IC50,[1],0.5 to 1.5 µM
same,amount of HSP70 in complex with B-PES,HSP70,clearly reduced
same,IL-6 mediated phosphorylation of STAT3 and STAT1,STAT3 and STAT1,inhibited
same,synergy with PLX4032 (Vemurafenib),[2],able to synergize
same,autophagy marker processed LC3II,LC3,increase
same,autophagy and proteostasis by EM,tumor cells,altered autophagy and impaired proteostasis
same,cytotoxicity tumor versus nontransformed cells,[3],preferentially cytotoxic for tumor cells
